Measurements published in PubChem BioAssay AID270 (DTP/NCI, 2004).
Inconclusive results are not listed.

Test system: BDF1 mice, s.c. Lewis lung carcinoma, T/C %
Test: NCI In Vivo Anticancer Drug Screen. Data for tumor model Lewis Lung Carcinoma (subcutaneous) in B6D2F1 (BDF1) mice
Method in brief: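 First, mice carry a transplantable tumor. Next, groups receive either compound or vehicle. Finally, survival or tumor dimensions in the dosed animals are divided by the corresponding control figure.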

CNS(=O)(=O)c1ncnc2nc[nH]c12
T/C (endpoint: mean tumor weight, dose: 22.0 mg/kg/injection, schedule: Q01DX011 (ip), vehicle: carboxymethylcellulose (CMC), higher = larger tumour): 61 % of control
T/C (endpoint: mean tumor weight, dose: 35.0 mg/kg/injection, schedule: Q01DX011 (ip), vehicle: carboxymethylcellulose (CMC), higher = larger tumour): 62 % of control
T/C (endpoint: mean tumor weight, dose: 50.0 mg/kg/injection, schedule: Q01DX011 (ip), vehicle: carboxymethylcellulose (CMC), higher = larger tumour): 56 % of control

COc1ccccc1NC(=O)CSC(N)=O
T/C (endpoint: mean tumor weight, dose: 125.0 mg/kg/injection, schedule: Q01DX011 (ip), vehicle: carboxymethylcellulose (CMC), higher = larger tumour): 97 % of control
T/C (endpoint: mean tumor weight, dose: 250.0 mg/kg/injection, schedule: Q01DX011 (ip), vehicle: carboxymethylcellulose (CMC), higher = larger tumour): 47 % of control

C=C[C@@]1(C)C=C2CC[C@@H]3[C@](C)(CCC[C@@]3(C)C(=O)O)[C@H]2CC1
T/C (endpoint: mean tumor weight, dose: 25.0 mg/kg/injection, schedule: Q01DX011 (ip), vehicle: saline, higher = larger tumour): 95 % of control
T/C (endpoint: mean tumor weight, dose: 50.0 mg/kg/injection, schedule: Q01DX011 (ip), vehicle: saline, higher = larger tumour): 88 % of control
T/C (endpoint: mean tumor weight, dose: 100.0 mg/kg/injection, schedule: Q01DX011 (ip), vehicle: saline, higher = larger tumour): 84 % of control
T/C (endpoint: mean tumor weight, dose: 200.0 mg/kg/injection, schedule: Q01DX011 (ip), vehicle: saline, higher = larger tumour): 95 % of control

O=P(c1ccccc1)(c1ccccc1)P(=O)(c1ccccc1)c1ccccc1
T/C (endpoint: mean tumor weight, dose: 33.0 mg/kg/injection, schedule: Q01DX011 (ip), vehicle: other, higher = larger tumour): 117 % of control
T/C (endpoint: mean tumor weight, dose: 66.0 mg/kg/injection, schedule: Q01DX011 (ip), vehicle: other, higher = larger tumour): 79 % of control
T/C (endpoint: mean tumor weight, dose: 100.0 mg/kg/injection, schedule: Q01DX011 (ip), vehicle: other, higher = larger tumour): 61 % of control
T/C (endpoint: mean tumor weight, dose: 150.0 mg/kg/injection, schedule: Q01DX011 (ip), vehicle: other, higher = larger tumour): 94 % of control
T/C (endpoint: mean tumor weight, dose: 200.0 mg/kg/injection, schedule: Q01DX011 (ip), vehicle: methylcellulose (MC), higher = larger tumour): 87 % of control
T/C (endpoint: mean tumor weight, dose: 300.0 mg/kg/injection, schedule: Q01DX011 (ip), vehicle: methylcellulose (MC), higher = larger tumour): 38 % of control

CCC[CH2][Sn]1([CH2]CCC)[N](S(=O)(=O)c2ccc(C)cc2)c2ccccc2[N]1S(=O)(=O)c1ccc(C)cc1
T/C (endpoint: median survival time, dose: 1.5 mg/kg/injection, schedule: Q01DX009 (ip), vehicle: Klucel (hydroxypropylcellulose) (HPC), higher = longer survival): 111 % of control
T/C (endpoint: median survival time, dose: 3.0 mg/kg/injection, schedule: Q01DX009 (ip), vehicle: Klucel (hydroxypropylcellulose) (HPC), higher = longer survival): 90 % of control
T/C (endpoint: median survival time, dose: 6.0 mg/kg/injection, schedule: Q01DX009 (ip), vehicle: Klucel (hydroxypropylcellulose) (HPC), higher = longer survival): 101 % of control

CC(C)=CCC/C(C)=C/CNCCc1c[nH]c2ccccc12
T/C (endpoint: median survival time, dose: 6.25 mg/kg/injection, schedule: Q01DX009 (ip), vehicle: Klucel (hydroxypropylcellulose) (HPC), higher = longer survival): 100 % of control
T/C (endpoint: median survival time, dose: 12.5 mg/kg/injection, schedule: Q01DX009 (ip), vehicle: Klucel (hydroxypropylcellulose) (HPC), higher = longer survival): 101 % of control
T/C (endpoint: median survival time, dose: 25.0 mg/kg/injection, schedule: Q01DX009 (ip), vehicle: Klucel (hydroxypropylcellulose) (HPC), higher = longer survival): 97 % of control

c1ccc(C2=C(c3ccccc3)C(c3ccccc3)=C(c3ccccc3)C2)cc1
T/C (endpoint: mean tumor weight, dose: 118.0 mg/kg/injection, schedule: Q01DX011 (ip), vehicle: other, higher = larger tumour): 89 % of control
T/C (endpoint: mean tumor weight, dose: 178.0 mg/kg/injection, schedule: Q01DX011 (ip), vehicle: other, higher = larger tumour): 65 % of control
T/C (endpoint: mean tumor weight, dose: 250.0 mg/kg/injection, schedule: Q01DX011 (ip), vehicle: other, higher = larger tumour): 92 % of control
T/C (endpoint: mean tumor weight, dose: 266.0 mg/kg/injection, schedule: Q01DX011 (ip), vehicle: other, higher = larger tumour): 84 % of control
T/C (endpoint: mean tumor weight, dose: 400.0 mg/kg/injection, schedule: Q01DX011 (ip), vehicle: other, higher = larger tumour): 109 % of control
T/C (endpoint: mean tumor weight, dose: 750.0 mg/kg/injection, schedule: Q01DX011 (ip), vehicle: other, higher = larger tumour): 124 % of control
T/C (endpoint: mean tumor weight, dose: 1000.0 mg/kg/injection, schedule: Q01DX011 (ip), vehicle: other, higher = larger tumour): 60 % of control

C[C@]12CCC(=O)C=C1CC[C@@H]1[C@@H]2[C@@H](O)C[C@@]2(C)[C@H]1CC[C@]2(O)C(=O)COC(=O)CCC(=O)O
T/C (endpoint: mean tumor weight, dose: 87.5 mg/kg/injection, schedule: Q01DX011 (sc), vehicle: steriod suspending solution, higher = larger tumour): 76 % of control
T/C (endpoint: mean tumor weight, dose: 175.0 mg/kg/injection, schedule: Q01DX011 (sc), vehicle: steriod suspending solution, higher = larger tumour): 79 % of control
T/C (endpoint: mean tumor weight, dose: 350.0 mg/kg/injection, schedule: Q01DX011 (sc), vehicle: steriod suspending solution, higher = larger tumour): 66 % of control
T/C (endpoint: mean tumor weight, dose: 500.0 mg/kg/injection, schedule: Q01DX011 (sc), vehicle: steriod suspending solution, higher = larger tumour): 26 % of control
T/C (endpoint: mean tumor weight, dose: 700.0 mg/kg/injection, schedule: Q01DX011 (sc), vehicle: steriod suspending solution, higher = larger tumour): 72 % of control

CO[C@H](C(=O)[C@@H](O)[C@@H](C)O)[C@@H]1Cc2cc3cc(OC4CC(OC5CC(O)C(O)C(C)O5)C(O)C(C)O4)c(C)c(O)c3c(O)c2C(=O)[C@H]1OC1CC(OC2CC(OC3CC(C)(O)C(O)C(C)O3)C(O)C(C)O2)C(O)C(C)O1 (some centres undefined)
T/C (endpoint: median survival time, dose: 0.25 mg/kg/injection, schedule: Q01DX009 (ip), vehicle: saline, higher = longer survival): 116 % of control
